Experimental data reported in US6270389A, “Method for forming an electron-emitting device using a metal-containing composition” (priority 1995, dated 2001).

Key:
[1] = Thermogravimetric analysis (TG) in the air; format: physicochemical; settings: for Decomp. Start.: Table 1
[2] = Electron-emitting characteristics of device measured with measurement evaluation apparatus; settings: Table 1
Source text: FIG. 4 is a schematic block diagram of an arrangement comprising a vacuum chamber that can be used as a measuring system for determining the performance of an electron-emitting device of the type under consideration.
Referring to FIG. 4, those components that are similar to or same as those of FIGS. 1A and 1B are denoted by the same reference symbols. The measuring system includes a vacuum chamber 45 and a vacuum pump 46. An electron-emitting device is placed in the vacuum chamber 45. The device comprises a substrate 1, a pair of device electrodes 2 and 3, an electroconductive thin film 4 and an electron-emitting region 5. Otherwise, the measuring system has a power source 41 for applying a device voltage Vf to the device, an ammeter 40 for metering the device current If running through the thin film 4 between the device electrodes 2 and 3, an anode 44 for capturing the emission current Ie produced by electrons emitted from the electron-emitting region of the device, a high voltage source 43 for applying a voltage to the anode 44 of the measuring system and another ammeter 42 for metering the emission current Ie produced by electrons emitted from the electron-emitting region 5 of the device. For determining the performance of the electron-emitting device, a voltage between 1 and 10 KV may be applied to the anode, which is spaced apart from the electron emitting device by distance H which is between 2 and 8 mm.
The electron-emitting characteristics of the electron-emitting device formed as described above were evaluated by using the measurement evaluation apparatus in FIG. 4. Note that, in this example, the distance between an anode and the electron-emitting device was set to be 4 mm, and the potential of the anode was set to be 1 kV. The degree of vacuum in the vacuum apparatus in measurement of the electron-emitting characteristics was 10^-8 torr.
The measurement evaluation apparatus described above was used, and a device voltage was applied across the electrodes 2 and 3 of the electron-emittingdevice. When a device current If and an emission current Ie flowing at this time were measured, current-voltage characteristics shown in FIG. 5 were obtained. In this device, the emission current Ie began to increase from a device voltage of about 6.3 V, and the device current If became 1.9 mA at the device voltage of 14 V. At this time, the emission current Ie of 0.7 μA was obtained.
The electron-emitting characteristics of the device manufactured as described above were measured. FIG. 4 is a schematic view showing the arrangement of a measurement evaluation apparatus. Reference numerals in FIG. 4 follow the reference numerals in the above examples. Note that, in this example, the distance between an anode and the electron-emitting device was set to be 4 mm, the potential of the anode was set to be 1 KV, and the degree of vacuum in a vacuum apparatus in measurement of the electron-emitting characteristics was set to be 10^-6 torr.
The measurement evaluation apparatus described above was used, and a device voltage was applied across the electrodes 2 and 3 of the electron-emittingdevice. When a device current If and an emission current Ie flowing at this time were measured, current-voltage characteristics shown in FIG. 5 were obtained. In the device in this example, the emission current Ie begun to sharply increase from a device voltage of about 8 V, the device current If and the emission current Ie respectively became 2.3 mA and 1.2 μA at the device voltage of 16 V, and electron-emitting efficiency .eta.=Ie/If (%) was 0.05%.
Note that, in this example, the distance between an anode and the electron-emitting device was set to be 4 mm, the potential of the anode was set to be 1 KV, and the degree of vacuum in a vacuum apparatus in measurement of the electron-emitting characteristics was set to be 10^-7 torr. […]

[3] = water
[4] = X-ray diffraction
[5] = scanning type differential thermal analysis in the air

| Compound | temperature at which decomposition ended ([1]; TG in the air) | Decomp. Start. [1] | Ie [2] | Ie/If [2] | If [2] | Solubility [3] | further results |
| --- | --- | --- | --- | --- | --- | --- | --- |
| palladium acetate-bis(N,N-dibutylethanolamine) [PADBE] | 253 °C |  |  |  |  |  |  |
| CC(=O)[O-].CC(=O)[O-].CCCNCCO.CCCNCCO.[Pd+2] [Ex. 24] |  | 154 °C | 1.0 mA | 0.038% | 2.6 mA | 4.0 Pdwt % |  |
| palladium acetate bis(dipropylamine) [reference compound] |  |  |  |  |  |  | palladium lost in thermal decomposition ([1]; TG in the atmosphere): 29%; weight reduction end temperature ([1]; TG in the atmosphere): 250 °C; weight reduction start temperature ([1]; TG in the atmosphere): 122 °C; residue weight at 350° C. relative to theoretical weight ([1]; TG in the atmosphere, 350° C.): 71% |
| NCCO.NCCO.NCCO.O.O.O=C[O-].O=C[O-].[Ni+2] [NFME, nickel formate-tris(ethanolamine)-2-hydrate] | 403 °C |  |  |  |  |  |  |
| CC(=O)[O-].CC(=O)[O-].CC(C)NCCO.CC(C)NCCO.[Pd+2] [Ex. 25] |  | 155 °C | 1.1 mA | 0.039% | 2.8 mA | 3.7 Pdwt % |  |
| CC(=O)[O-].CC(=O)[O-].NCCCO.NCCCO.[Ni+2] [NAMP, nickel acetate-bis(3-amino-propanol)] | 393 °C |  |  |  |  |  |  |
| CC(=O)[O-].CC(=O)[O-].NCCCO.NCCCO.NCCCO.NCCCO.[Pd+2] [Ex. 19] |  | 173 °C | 1.1 mA | 0.041% | 2.7 mA |  |  |
| palladium acetate-diethanolamine complex [PA-DE] | 305 °C |  |  |  |  |  | decomposition start temperature ([1]; TG in the air): 100 °C; sublimation properties ([1]; TG in the air): no sublimation properties |
| CC(=O)[O-].CC(=O)[O-].NCCO.NCCO.NCCO.NCCO.[Pd+2] [PA-ME, palladium acetate-monoethanolamine complex] | 310 °C |  |  |  |  |  | decomposition start temperature ([1]; TG in the air): 100 °C; sublimation properties ([1]; TG in the air): no sublimation properties; residue weight at 350° C., in words ([1]; TG in the air, 350° C.): equal to a theoretical weight; crystallinity of dried thin film [4]: non-crystallized; decomposition temperature [5]: 272 °C |
| nickel acetate-bis(N-butylethanolamine) [NABE] | 395 °C |  |  |  |  |  |  |
| CC(=O)[O-].CC(=O)[O-].CC(O)CN.CC(O)CN.[Ni+2] (centres unmarked) [NAMiP, nickel acetate-bis(1-amino-2-propanol)] | 406 °C |  |  |  |  |  |  |
| CC(=O)[O-].CC(=O)[O-].CNCCO.CNCCO.[Ni+2] [NANME, nickel acetate-bis(N-methylethanolamine)] | 379 °C |  |  |  |  |  |  |
| palladium acetate-di(N-butylethanolamine) [PABE] | 245 °C |  |  |  |  |  |  |
| CC(=O)[O-].CC(=O)[O-].CNCCO.CNCCO.[Pd+2] [Ex. 22] |  | 155 °C | 1.3 mA | 0.045% | 2.9 mA | 16.0 Pdwt % |  |
| CC(=O)[O-].CC(=O)[O-].CC(C)(C)NCCO.CC(C)(C)NCCO.[Pd+2] [Ex. 26] |  | 166 °C | 1.0 mA | 0.040% | 2.5 mA | 0.7 Pdwt % |  |
| CC(=O)[O-].CC(=O)[O-].NCCCCO.NCCCCO.NCCCCO.NCCCCO.[Pd+2] [Ex. 20] |  | 186 °C |  | 0.052% | 2.3 mA | 10.5 Pdwt % |  |
| CC(=O)[O-].CC(=O)[O-].CCNCCO.CCNCCO.[Pd+2] [Ex. 23] |  | 153 °C | 1.1 mA | 0.042% | 2.6 mA | 8.4 Pdwt % |  |
